Source: ChEMBL document CHEMBL1201862, “PubChem BioAssay data set” (2004)
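Exposure lasted 48 hours, with cells grown in 96-well plates and compounds tested at five concentrations. Here, GI50 denotes the concentration required for 50% inhibition of growth.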 Calls of active or inactive are those of the source. No stated cut-off is given here; in the data, active = GI50 up to about 1.1 µM and inactive = higher.

Assays:
Test in all cases: NCI tumour cell line growth inhibition, 48 h
[1] = system: 786-0
[2] = system: A498
[3] = system: A549
[4] = system: ACHN
[5] = system: CAKI-1
[6] = system: CCRF-CEM
[7] = system: COLO 205
[8] = system: DLD-1
[9] = system: DMS-114
[10] = system: EKVX
[11] = system: HCC 2998
[12] = system: HCT-116
[13] = system: HCT-15
[14] = system: HL-60
[15] = system: HOP-18
[16] = system: HOP-62
[17] = system: HOP-92
[18] = system: HT-29
[19] = system: IGROV-1
[20] = system: K562
[21] = system: KM-20L2
[22] = system: KM12
[23] = system: LOX IMVI
[24] = system: LXFL 529
[25] = system: M14
[26] = system: M19-MEL
[27] = system: MOLT-4
[28] = system: Malme-3M
[29] = system: NCI-H226
[30] = system: NCI-H23
[31] = system: NCI-H460
[32] = system: NCI-H522
[33] = system: OVCAR-3
[34] = system: OVCAR-4
[35] = system: OVCAR-5
[36] = system: OVCAR-8
[37] = system: RPMI-8226
[38] = system: RXF 393
[39] = system: RXF 631
[40] = system: SF-268
[41] = system: SF-295
[42] = system: SF-539
[43] = system: SK-MEL-28
[44] = system: SK-MEL-5
[45] = system: SK-OV-3
[46] = system: SN12C
[47] = system: SNB-19
[48] = system: SNB-75
[49] = system: SNB-78
[50] = system: SR
[51] = system: SW-620
[52] = system: TK-10
[53] = system: U-251
[54] = system: UACC-257
[55] = system: UACC-62
[56] = system: UO-31
[57] = system: DMS-273
[58] = system: SK-MEL-2
[59] = system: XF498

Measured: GI50

CC1=CCP(C(F)(F)F)P(C(F)(F)F)C1 (stereo unspecified)
> 100 µM: [13]
inactive: [1] > 100 µM | [2] > 100 µM | [3] > 100 µM | [4] > 100 µM | [5] > 100 µM | [6] > 100 µM | [7] > 100 µM | [8] > 100 µM | [9] > 100 µM | [10] > 100 µM | [11] > 100 µM | [12] > 100 µM | [14] > 100 µM | [15] > 100 µM | [16] > 100 µM | [17] > 100 µM | [18] > 100 µM | [19] > 100 µM | [20] > 100 µM | [21] > 100 µM | [22] > 100 µM | [23] > 100 µM | [24] > 100 µM | [25] > 100 µM | [26] > 100 µM | [27] > 100 µM | [28] > 100 µM | [29] > 100 µM | [30] > 100 µM | [31] > 100 µM | [32] > 100 µM | [33] > 100 µM | [34] > 100 µM | [35] > 100 µM | [36] > 100 µM | [37] > 100 µM | [38] 5.55 µM | [39] > 100 µM | [40] > 100 µM | [41] > 100 µM | [42] > 100 µM | [43] > 100 µM | [44] > 100 µM | [45] > 100 µM | [46] > 100 µM | [47] > 100 µM | [48] > 100 µM | [49] > 100 µM | [50] > 100 µM | [51] > 100 µM | [52] > 100 µM | [53] > 100 µM | [54] > 100 µM | [55] > 100 µM | [56] > 100 µM

CCCCCCCCCCC(C)CCCCCCC(=O)O (stereo unspecified)
> 100 µM: [13]
inactive: [1] > 100 µM | [2] > 100 µM | [3] > 100 µM | [4] > 100 µM | [5] > 100 µM | [6] > 100 µM | [7] > 100 µM | [8] > 100 µM | [9] > 100 µM | [57] > 100 µM | [10] > 100 µM | [11] > 100 µM | [12] > 100 µM | [14] > 100 µM | [15] > 100 µM | [16] > 100 µM | [17] > 100 µM | [18] > 100 µM | [19] > 100 µM | [20] > 100 µM | [22] > 100 µM | [23] > 100 µM | [24] > 100 µM | [25] > 100 µM | [26] > 100 µM | [27] > 100 µM | [28] > 100 µM | [29] > 100 µM | [30] > 100 µM | [31] > 100 µM | [32] > 100 µM | [33] > 100 µM | [34] > 100 µM | [35] > 100 µM | [36] > 100 µM | [37] > 100 µM | [38] > 100 µM | [39] > 100 µM | [40] > 100 µM | [41] > 100 µM | [42] > 100 µM | [43] > 100 µM | [58] > 100 µM | [44] > 100 µM | [45] > 100 µM | [46] > 100 µM | [47] > 100 µM | [48] > 100 µM | [49] > 100 µM | [50] > 100 µM | [51] > 100 µM | [52] > 100 µM | [53] > 100 µM | [54] > 100 µM | [55] > 100 µM | [56] > 100 µM

Cc1cc(C(C)C)cc(=O)c(O)c1
> 100 µM: [13]
inactive: [1] > 100 µM | [2] > 100 µM | [3] > 100 µM | [4] > 100 µM | [5] > 100 µM | [6] > 100 µM | [7] > 100 µM | [8] > 100 µM | [57] > 100 µM | [10] > 100 µM | [11] > 100 µM | [12] > 100 µM | [14] > 100 µM | [15] > 100 µM | [16] > 100 µM | [17] > 100 µM | [18] > 100 µM | [19] > 100 µM | [21] > 100 µM | [22] > 100 µM | [23] > 100 µM | [24] > 100 µM | [25] > 100 µM | [26] > 100 µM | [27] > 100 µM | [28] > 100 µM | [29] > 100 µM | [31] > 100 µM | [32] > 100 µM | [33] > 100 µM | [34] > 100 µM | [35] > 100 µM | [36] > 100 µM | [37] > 100 µM | [38] > 100 µM | [39] > 100 µM | [40] > 100 µM | [41] > 100 µM | [42] > 100 µM | [43] > 100 µM | [44] > 100 µM | [45] > 100 µM | [46] > 100 µM | [47] > 100 µM | [48] > 100 µM | [49] > 100 µM | [50] > 100 µM | [51] > 100 µM | [52] > 100 µM | [53] > 100 µM | [54] > 100 µM | [55] > 100 µM | [56] > 100 µM

CC(=O)/C(=N\O)C(=O)NCCc1ccccc1
41.1 µM: [13]
inactive: [1] 68.2 µM | [2] > 100 µM | [3] 98.6 µM | [4] > 100 µM | [5] > 100 µM | [6] 76.4 µM | [7] 45.9 µM | [8] 60.4 µM | [9] 43.7 µM | [57] 55.1 µM | [10] > 100 µM | [11] 66.5 µM | [12] 46 µM | [14] 73.8 µM | [15] > 100 µM | [16] > 100 µM | [17] > 100 µM | [18] 83.2 µM | [19] > 100 µM | [20] 68.7 µM | [21] 78.9 µM | [22] 58.3 µM | [23] 41.8 µM | [24] > 100 µM | [25] > 100 µM | [26] > 100 µM | [27] > 100 µM | [28] > 100 µM | [29] > 100 µM | [30] > 100 µM | [31] 41.6 µM | [32] > 100 µM | [33] > 100 µM | [34] > 100 µM | [35] > 100 µM | [36] > 100 µM | [37] 57.7 µM | [38] 64.7 µM | [40] > 100 µM | [41] > 100 µM | [42] > 100 µM | [43] > 100 µM | [58] > 100 µM | [44] > 100 µM | [45] > 100 µM | [46] > 100 µM | [47] > 100 µM | [48] > 100 µM | [49] > 100 µM | [50] > 100 µM | [51] 38.8 µM | [52] 45.1 µM | [53] 63.5 µM | [54] 57.7 µM | [55] > 100 µM | [56] > 100 µM | [59] 31.6 µM

Cn1cc(C(=O)c2ccccc2)cc(C(=O)c2ccccc2)c1=O
inactive: [1] > 100 µM | [3] > 100 µM | [4] > 100 µM | [5] > 100 µM | [6] > 100 µM | [7] > 100 µM | [8] > 100 µM | [9] > 100 µM | [57] > 100 µM | [10] > 100 µM | [11] > 100 µM | [14] > 100 µM | [16] > 100 µM | [17] > 100 µM | [18] > 100 µM | [19] > 100 µM | [20] > 100 µM | [21] > 100 µM | [22] > 100 µM | [23] > 100 µM | [24] > 100 µM | [25] > 100 µM | [26] > 100 µM | [27] > 100 µM | [28] > 100 µM | [29] > 100 µM | [30] > 100 µM | [31] > 100 µM | [32] > 100 µM | [33] > 100 µM | [34] > 100 µM | [35] > 100 µM | [36] > 100 µM | [37] > 100 µM | [38] > 100 µM | [39] > 100 µM | [40] > 100 µM | [41] > 100 µM | [42] > 100 µM | [43] > 100 µM | [58] > 100 µM | [44] > 100 µM | [45] > 100 µM | [46] > 100 µM | [47] > 100 µM | [48] > 100 µM | [49] > 100 µM | [50] > 100 µM | [51] > 100 µM | [52] > 100 µM | [53] > 100 µM | [54] > 100 µM | [55] > 100 µM | [56] > 100 µM | [59] > 100 µM
> 100 µM: [13]
